Assay results reported in ChEMBL document CHEMBL2034835, “A solvent free, four-component synthesis and 1,3-dipolar cycloaddition of 4(H)-pyrans with nitrile oxides: synthesis and discovery of antimycobacterial activity of enantiomerically pure 1,2,4-oxadiazoles” (2012).
≈ marks a conversion by molar mass, not a printed value.

Assays:
Format in all cases: functional
[1] = test system: Mycobacterium tuberculosis; assay: Ratio of rifampicin MIC to compound MIC for multidrug-resistant Mycobacterium tuberculosis clinical isolate
[2] = test system: Mycobacterium tuberculosis; assay: Ratio of ethambutol MIC to compound MIC for multidrug-resistant Mycobacterium tuberculosis clinical isolate
[3] = test system: Mycobacterium tuberculosis; assay: Ratio of isoniazid MIC to compound MIC for multidrug-resistant Mycobacterium tuberculosis clinical isolate
[4] = test system: Mycobacterium tuberculosis; assay: Antitubercular activity against isoniazid, rifampicin and ethambutol-resistant Mycobacterium tuberculosis clinical isolate after 28 days by agar dilution method; conditions: 672 h
[5] = test system: Mycobacterium tuberculosis; assay: Ratio of ciprofloxacin MIC to compound MIC for multidrug-resistant Mycobacterium tuberculosis clinical isolate

Compound | MIC [4] [µM] | also measured
C[C@H](c1ccccc1)N1CC2=C(OC(N)=C(c3nc(-c4ccc(Cl)cc4)no3)C2c2ccc(Cl)cc2Cl)/C(=C/c2ccc(Cl)cc2Cl)C1 (stereo in doubt; 9h) | 0.14 (≈ 0.103 µg/mL) | Ratio [1]: 27.1; Ratio [2]: 437; Ratio [3]: 81.3; Ratio [5]: 269.5
C[C@H](c1ccccc1)N1CC2=C(OC(N)=C(c3nc(-c4ccccc4)no3)C2c2ccccc2)/C(=C/c2ccccc2)C1 (stereo in doubt; 10a) | 5.54 (≈ 3.13 µg/mL) | –
C[C@H](c1ccccc1)N1CC2=C(OC(N)=C(c3nc(-c4ccccc4)no3)C2c2ccccc2Cl)/C(=C/c2ccccc2Cl)C1 (stereo in doubt; 9e) | 1.23 (≈ 0.779 µg/mL) | –
C[C@H](c1ccccc1)N1CC2=C(OC(N)=C(c3nc(-c4ccccc4)no3)C2c2ccc(Cl)cc2Cl)/C(=C/c2ccc(Cl)cc2Cl)C1 (stereo in doubt; 9g) | 0.57 (≈ 0.4 µg/mL) | –
C[C@H](c1ccccc1)N1CC2=C(OC(N)=C(c3nc(-c4ccc(Cl)cc4)no3)C2c2ccccc2Cl)/C(=C/c2ccccc2Cl)C1 (stereo in doubt; 9f) | 0.6 (≈ 0.401 µg/mL) | –
CC[C@@H](CO)NCCN[C@@H](CC)CO [ETHAMBUTOL] | 61.2 (≈ 12.5 µg/mL) | –
CO[C@H]1/C=C/O[C@@]2(C)Oc3c(C)c(O)c4c(O)c(c(/C=N/N5CCN(C)CC5)c(O)c4c3C2=O)NC(=O)/C(C)=C\C=C\[C@H](C)[C@H](O)[C@@H](C)[C@@H](O)[C@@H](C)[C@H](OC(C)=O)[C@@H]1C [RIFAMPIN] | 3.8 (≈ 3.13 µg/mL) | –
NNC(=O)c1ccncc1 [ISONIAZID] | 11.4 (≈ 1.56 µg/mL) | –
Cc1ccc(/C=C2\CN([C@H](C)c3ccccc3)CC3=C2OC(N)=C(c2nc(-c4ccc(Cl)cc4)no2)C3c2ccc(C)cc2)cc1 (stereo in doubt; 9d) | 1.24 (≈ 0.778 µg/mL) | –
C[C@H](c1ccccc1)N1CC2=C(OC(N)=C(c3nc(-c4ccc(Cl)cc4)no3)C2c2ccccc2)/C(=C/c2ccccc2)C1 (stereo in doubt; 10b) | 2.6 (≈ 1.56 µg/mL) | –
